Results published in patent US20240226049A1, “METHODS OF TREATMENT USING BEMPEDOIC ACID” (Esperion Therapeutics, Inc., priority 2023, published 2024).

How the values were obtained:
[1] = system: statin-intolerant patients with or at high risk of CVD; assay: CLEAR OUTCOMES trial (Example 1): effect on LDL-cholesterol, hsCRP, other lipids and glycaemic biomarkers; type: in vivo, human
Excerpt: The CLEAR OUTCOMES trial was a randomized, placebo-controlled, double-blind trial that enrolled patients at 1250 sites in 32 countries. An independent Data Monitoring Committee reviewed safety and efficacy data during the trial.
Patients 18 to 85 years of age were eligible for enrollment if they met either of two criteria for increased cardiovascular risk, a prior cardiovascular event (secondary prevention) or clinical features that placed them at high risk for a cardiovascular event (primary prevention). (Nicholls S. Lincoff A M, Bays H E, et al. Rationale and design of the CLEAR-outcomes trial: Evaluating the effect of bempedoic acid on cardiovascular events in patients with statin intolerance. Am Heart J. 2021 May; 235:104-112) All patients provided written informed consent. Patients had to report statin intolerance due to an adverse effect that started or increased during statin therapy and resolved or improved after statin therapy was discontinued. Patients could be enrolled if they tolerated a very low average daily statin dose (e.g., an average daily dose of rosuvastatin <5 mg, atorvastatin <10 mg, simvastatin <10 mg, lovastatin <20 mg, pravastatin <40 mg, fluvastatin <40 mg, or pitavastatin <2 mg). Other lipid-lowering therapies were permitted, including ezetimibe, niacin, bile acid resins, fibrates, and/or proprotein convertase subtilisin kexin type 9 (PCSK9) inhibitors. Full inclusion and exclusion criteria are provided in Nicholls et al. (Am Heart J. 2021).
Eligible patients entered a 4-week run-in period during which patients were treated with single-blind placebo. If patients were intolerant to placebo treatment or if adherence was <80% by tablet count, they were not eligible for randomization. Patients who successfully completed the run-in period were randomly assigned in a 1:1 ratio to receive bempedoic acid at an oral dose of 180 mg or matching placebo, administered daily. Beginning 6 months after enrollment, the central laboratory notified the investigator if the patient's LDL-cholesterol level was ≥25% higher than baseline. These patients were counseled on healthy dietary guidelines and reminded to take all lipid-regulating medications. If repeat testing confirmed that LDL-cholesterol value met the threshold criteria, the provider could adjust the lipid-lowering treatment regimen per standard of care and local guidelines.
This was an event-driven trial designed to provide at least 90% power to detect a 15% relative risk reduction for the primary composite end point at an overall two-sided significance level of 0.05. The trial required a minimum of 1620 primary composite events with ≥24 months of follow-up for all patients and at least 810 first key secondary end points. The average treatment duration was estimated to be 42 months and a lost-to-follow-up rate of 1% per year. Assuming a 3.59% annual event rate in the placebo group, enrollment of 12,600 patients was required, subsequently amended to 14,000. There were no interim efficacy analyses. A hierarchical approach was prespecified to evaluate sequentially each of the six key secondary efficacy end points with statistical significance at each step required to test the next hypothesis, thereby preserving the study-wise Type I error rate at 5%. All analyses were based on the intent-to-treat principle. The primary efficacy end point was analyzed using Cox proportional hazards model with treatment as a factor to generate the hazard ratio (HR) and 95% confidence interval (CI). The p-value was obtained from a log-rank test.

[2] = system: statin-intolerant patients with or at high risk of CVD; type: in vivo
Description: CLEAR OUTCOMES (described in Example 1) was a randomized double-blind trial comparing orally administered bempedoic acid 180 mg once daily to placebo in statin-intolerant patients with or at high risk of CVD and an LDL-C ≥2.59 mmol/L. This prespecified analysis reports the time to event analysis of bempedoic acid versus placebo on the primary endpoint (MACE-4; composite of CV death, nonfatal MI, nonfatal stroke, or coronary revascularization) and key secondary end-point (MACE-3; death from cardiovascular causes, nonfatal myocardial infarction, nonfatal stroke) by baseline glycaemia status (diabetes, prediabetes, and normoglycaemia), and impact on HbA1c at 1 and 3 years and on NOD for subjects without diabetes at baseline.

[3] = baseline mean 139.0 mg/dL, full population
[4] = baseline diabetes, median 3.4 year follow up
[5] = baseline normoglycaemia, p<0.0001
[6] = baseline normoglycemia, median 3.4 year follow up
[7] = baseline pre-diabetes, median 3.4 year follow up
[8] = baseline pre-diabetes, p<0.0001
[9] = diabetes, primary prevention CVD risk group
[10] = diabetes, secondary prevention CVD risk group
[11] = vs placebo, baseline normoglycemia
[12] = vs placebo, baseline pre-diabetes
[13] = vs placebo, diabetes, primary prevention
[14] = vs placebo, diabetes, secondary prevention
[15] = vs placebo, history of one or more cardiovascular events
[16] = vs placebo, no prior history of cardiovascular events

SMILES: CC(C)(CCCCCC(O)CCCCCC(C)(C)C(=O)O)C(=O)O [Bempedoic Acid, Bempedoic acid]
- placebo-subtracted reduction in LDL-cholesterol after 6 months of treatment [1, 3]: 29.2 mg/dL
- placebo-subtracted reduction in LDL-cholesterol after 6 months of treatment, percent [1, 3]: 21.1%
- Change from baseline to month 12 in HbA1C in patients with inadequately controlled type 2 diabetes mellitus, Difference ([1]; bempedoic acid vs placebo): −0.03%
- Change from baseline to Month 6 in HbA1c (%), All patients ([1]; observed mean ± SD): −0.003 ± 0.6^ %
- Change from baseline to Month 6 in HbA1c (%), Inadequately Controlled Diabetes at Baseline ([1]; observed mean ± SD): −0.20 ± 1.0%
- Change from baseline to Month 12 in HbA1c (%), All patients ([1]; observed mean ± SD): 0.04 ± 0.74%
- Change from baseline to Month 12 in HbA1c (%), Inadequately Controlled Diabetes at Baseline ([1]; observed mean ± SD): −0.06 ± 1.3%
- decrease in LDL-C as compared to baseline ([1]; prior to initial administration as baseline): about 21%
- time-averaged reduction in LDL-cholesterol, percent ([1]; vs placebo, over the trial, full population): 15.9%
- Time to First Adjudicated MACE-3, Diabetes, % of patients [2, 4]: 8.9%
- Time to First Adjudicated MACE-3, Diabetes, patients with event/patients [2, 4]: 279/3144
- Time to First Adjudicated MACE-4, Diabetes, % of patients [2, 4]: 11.9%
- Time to First Adjudicated MACE-4, Diabetes, patients with event/patients [2, 4]: 374/3144
- LDL-C reduction compared to placebo at month 6, patients with diabetes ([2]; baseline diabetes, p<0.0001): 21.2%
- LDL-C reduction compared to placebo at month 6 in absolute terms, patients with diabetes ([2]; baseline diabetes, p<0.0001): 0.73 mmol/L
- LDL-C reduction compared to placebo at month 6, patients with normoglycaemia [2, 5]: 22.0%
- LDL-C reduction compared to placebo at month 6 in absolute terms, patients with normoglycaemia [2, 5]: 0.81 mmol/L
- Time to First Adjudicated MACE-3, Normoglycemia, % of patients [2, 6]: 7.2%
- Time to First Adjudicated MACE-3, Normoglycemia, patients with event/patients [2, 6]: 67/937
- Time to First Adjudicated MACE-4, Normoglycemia, % of patients [2, 6]: 10.1%
- Time to First Adjudicated MACE-4, Normoglycemia, patients with event/patients [2, 6]: 95/937
- Time to First Adjudicated MACE-3, Pre-Diabetes, % of patients [2, 7]: 7.9%
- Time to First Adjudicated MACE-3, Pre-Diabetes, patients with event/patients [2, 7]: 229/2911
- Time to First Adjudicated MACE-4, Pre-Diabetes, % of patients [2, 7]: 12.0%
- Time to First Adjudicated MACE-4, Pre-Diabetes, patients with event/patients [2, 7]: 350/2911
- LDL-C reduction compared to placebo at month 6, patients with pre-diabetes [2, 8]: 20.7%
- LDL-C reduction compared to placebo at month 6 in absolute terms, patients with pre-diabetes [2, 8]: 0.76 mmol/L
- Time to First Adjudicated MACE-3, Diabetes, Primary Prevention, % of patients [2, 9]: 4.9%
- Time to First Adjudicated MACE-3, Diabetes, Primary Prevention, patients with event/patients [2, 9]: 67/1369
- Time to First Adjudicated MACE-4, Diabetes, Primary Prevention, % of patients [2, 9]: 6.4%
- Time to First Adjudicated MACE-4, Diabetes, Primary Prevention, patients with event/patients [2, 9]: 87/1369
- Time to First Adjudicated MACE-3, Diabetes, Secondary Prevention, % of patients [2, 10]: 11.9%
- Time to First Adjudicated MACE-3, Diabetes, Secondary Prevention, patients with event/patients [2, 10]: 212/1775
- Time to First Adjudicated MACE-4, Diabetes, Secondary Prevention, % of patients [2, 10]: 16.2%
- Time to First Adjudicated MACE-4, Diabetes, Secondary Prevention, patients with event/patients [2, 10]: 287/1775
- reduction in risk of MACE (CV death, non-fatal MI or non-fatal stroke), adult with diabetes ([2]; vs placebo, 180 mg oral daily): about 20%
- reduction in risk of MACE (CV death, non-fatal MI, non-fatal stroke or coronary revascularization), adult with diabetes ([2]; vs placebo, 180 mg oral daily): about 17%
- Time to First Adjudicated MACE-3, Diabetes, HR ([2]; vs placebo, baseline diabetes): 0.80
- Time to First Adjudicated MACE-4, Diabetes, HR ([2]; vs placebo, baseline diabetes): 0.83
- Time to First Adjudicated MACE-3, Normoglycemia, HR [2, 11]: 0.96
- Time to First Adjudicated MACE-4, Normoglycemia, HR [2, 11]: 0.84
- Time to First Adjudicated MACE-3, Pre-Diabetes, HR [2, 12]: 0.92
- Time to First Adjudicated MACE-4, Pre-Diabetes, HR [2, 12]: 0.94
- Time to First Adjudicated MACE-3, Diabetes, Primary Prevention, HR [2, 13]: 0.65
- Time to First Adjudicated MACE-4, Diabetes, Primary Prevention, HR [2, 13]: 0.70
- Time to First Adjudicated MACE-3, Diabetes, Secondary Prevention, HR [2, 14]: 0.86
- Time to First Adjudicated MACE-4, Diabetes, Secondary Prevention, HR [2, 14]: 0.87
- reduction in risk of MACE (CV death, non-fatal MI or non-fatal stroke), adult with diabetes at risk for a secondary MACE [2, 15]: at least 14%
- reduction in risk of MACE (CV death, non-fatal MI, non-fatal stroke or coronary revascularization), adult with diabetes at risk for a secondary MACE [2, 15]: about 13%
- reduction in risk of MACE (CV death, non-fatal MI or non-fatal stroke), adult with diabetes at risk for a primary MACE [2, 16]: about 35%
- reduction in risk of MACE (CV death, non-fatal MI, non-fatal stroke or coronary revascularization), adult with diabetes at risk for a primary MACE [2, 16]: about 30%
